Data from article PMC9247344 (ACS infectious diseases, 2021).

Assays:
[1] = tested on: P. falciparum asexual blood stages (PfABS), strain W2; type: cell-based, Plasmodium falciparum; settings: for Selectivity Index: PfABS versus HepG2 cytotoxicity; for EC50: Plasmodium falciparum, W2, read-out: PfABS pEC50 (±S.D.) (converted)
[2] = Cytotoxicity against HepG2; type: cell-based, human; settings: human, HepG2 cells
[3] = tested on: HepG2 human hepatocellular carcinoma cell line; test: Cytotoxicity against HepG2; type: cell-based; settings: HepG2, 72 h; mean (±S.D.), n≥3; <5.00 = inactive at all concentrations tested

EC50 [1]	Structure (SMILES)	Selectivity Index [1]	CC50 at 72 h [2]	Cytotoxicity pCC50 (±S.D.) [3]
0.000871 µM	C[C@H]1[C@@H](O)O[C@@H]2O[C@@]3(C)CC[C@H]4[C@H](C)CC[C@@H]1[C@@]24OO3 [DHA, dihydroartemisinin]	> 9770	> 8.51 µM	–
0.0468 µM	COc1ccc(C[C@H](N)C(=O)N[C@H]2[C@@H](O)[C@H](n3cnc4c(N(C)C)ncnc43)O[C@@H]2CO)cc1 [puromycin]	8.71	0.407 µM	–
–	CC1CCC2C(C)C(CCCO)OC3OC4(C)CCC1C32OO4 (centres unmarked) [Compound 6a]	> 891	–	< 5.00 (0.00)
0.00339 µM	C[C@@H]1CC[C@H]2[C@@H](C)C(=O)O[C@@H]3O[C@@]4(C)CC[C@@H]1[C@]32OO4 [artemisinin]	> 2950	> 10 µM	–
0.00112 µM	C[C@H]1[C@H](OC(=O)CCC(=O)O)O[C@@H]2O[C@@]3(C)CC[C@H]4[C@H](C)CC[C@@H]1[C@@]24OO3 [artesunate]	3160	3.55 µM	–
